Laboratory results reported in patent publication US12692264B2, “Pyrimidine or pyridine derivative, preparation method therefor, and application thereof in pharmacy” (ABBISKO THERAPEUTICS CO., LTD., priority 2021, dated 2026).

Molecular target: Ba/F3 EGFR-D770-N771ins_SVD (Homo sapiens, UniProt P00533, DUP768-770, cells depend on it)
Test: Cell proliferation study (CellTiter-Glo, 72 hrs), Ba/F3 EGFR-D770-N771ins_SVD
Assay type: cell-based
Conditions: CTG, * = average of multiple measurements, read-out: Ba/F3 EGFR-D770-N771ins_SVD IC50
Protocol: (I) Reagents and Materials
• Fetal bovine serum FBS (GBICO, Cat #10099-141); • CellTiter-Glo® luminescent cell viability assay kit (Promega, Cat #G7572); • Black transparent flat-bottom 96-well plate (Corning®, Cat #3603). (II) Instruments • SpectraMax multi-label microplate reader MD, 2104-0010A; • Carbon dioxide incubator, Thermo Scientific 3100 series; • Biological safety cabinet, Thermo Scientific, 1300 series model A2; • Inverted microscope, Olympus, CKX41SF; • Siemens refrigerator KK25E76T1. (III) Cell Lines and Culture Conditions
(IV) Experimental Procedures 1. Cell Culture and Inoculation: • (1) Cells in the logarithmic growth phase were harvested and counted using a […]. The cell viability was determined by the trypan blue dye exclusion method to ensure cell viability above 90%. • (2) The cell concentration was adjusted to reach a desired final density; 90 μL of cell suspension was added to a 96-well plate. • (3) The cells were incubated overnight in the 96-well plate at 37° C., 5% CO2 and with 95% humidity. 2. T0 Benchmark Data: • (1) 10 μL of PBS was added to each well of the TO plate containing the cells. • (2) The CTG reagent was thawed and the cell plate was equilibrated to room temperature for 30 min. • (3) An equal volume of CTG solution was added to each well. • (4) The cells were lysed by shaking on an orbital shaker for 5 min. • (5) The cell plate was left to stand at room temperature for 20 min to stabilize the fluorescence signal. • (6) The fluorescence signal values of TO were read. 3. Dilution and Addition of Compounds • (1) According to the compound information table, a corresponding volume of DMSO was added to the corresponding compound powder to prepare a 10 mM stock solution. • (2) A 1000-fold, 3.16-fold-diluted compound solution was prepared. • (3) The 1000× diluted compound solution was diluted 100-fold with PBS to prepare a 10-fold compound solution with a maximum concentration of 10 μM, including 9 concentrations, with 3.16-fold dilution, and 10 μL of the medicament solution was added to each well of the 96-well plate to seed the cells. Triplicate wells were set for each compound concentration, with a final concentration of DMSO being 0.1%. • (4) The cells were placed in the 96-well plate containing the medicament at 37° C., 5% CO2 and with 95% humidity, and cultured for 72 hrs before CTG analysis. 4. Fluorescence Signal Reading • (1) The CTG reagent was thawed and the cell plate was equilibrated to room temperature for 30 min. • (2) An equal volume of CTG solution was added to each well. • (3) The cells were lysed by shaking on an orbital shaker for 5 min. • (4) The cell plate was left to stand at room temperature for 20 min to stabilize the fluorescence signal. • (5) The fluorescence values were read. 5. Data Processing
Data were analyzed using GraphPad Prism 7.0 software and fitted data were regressed using non-linear S-curves to obtain dose-response curves from which IC50 values (in nM) were calculated.

Sequence of Ba/F3 EGFR-D770-N771ins_SVD (P00533 with tags, fused parts or gaps DUP768-770): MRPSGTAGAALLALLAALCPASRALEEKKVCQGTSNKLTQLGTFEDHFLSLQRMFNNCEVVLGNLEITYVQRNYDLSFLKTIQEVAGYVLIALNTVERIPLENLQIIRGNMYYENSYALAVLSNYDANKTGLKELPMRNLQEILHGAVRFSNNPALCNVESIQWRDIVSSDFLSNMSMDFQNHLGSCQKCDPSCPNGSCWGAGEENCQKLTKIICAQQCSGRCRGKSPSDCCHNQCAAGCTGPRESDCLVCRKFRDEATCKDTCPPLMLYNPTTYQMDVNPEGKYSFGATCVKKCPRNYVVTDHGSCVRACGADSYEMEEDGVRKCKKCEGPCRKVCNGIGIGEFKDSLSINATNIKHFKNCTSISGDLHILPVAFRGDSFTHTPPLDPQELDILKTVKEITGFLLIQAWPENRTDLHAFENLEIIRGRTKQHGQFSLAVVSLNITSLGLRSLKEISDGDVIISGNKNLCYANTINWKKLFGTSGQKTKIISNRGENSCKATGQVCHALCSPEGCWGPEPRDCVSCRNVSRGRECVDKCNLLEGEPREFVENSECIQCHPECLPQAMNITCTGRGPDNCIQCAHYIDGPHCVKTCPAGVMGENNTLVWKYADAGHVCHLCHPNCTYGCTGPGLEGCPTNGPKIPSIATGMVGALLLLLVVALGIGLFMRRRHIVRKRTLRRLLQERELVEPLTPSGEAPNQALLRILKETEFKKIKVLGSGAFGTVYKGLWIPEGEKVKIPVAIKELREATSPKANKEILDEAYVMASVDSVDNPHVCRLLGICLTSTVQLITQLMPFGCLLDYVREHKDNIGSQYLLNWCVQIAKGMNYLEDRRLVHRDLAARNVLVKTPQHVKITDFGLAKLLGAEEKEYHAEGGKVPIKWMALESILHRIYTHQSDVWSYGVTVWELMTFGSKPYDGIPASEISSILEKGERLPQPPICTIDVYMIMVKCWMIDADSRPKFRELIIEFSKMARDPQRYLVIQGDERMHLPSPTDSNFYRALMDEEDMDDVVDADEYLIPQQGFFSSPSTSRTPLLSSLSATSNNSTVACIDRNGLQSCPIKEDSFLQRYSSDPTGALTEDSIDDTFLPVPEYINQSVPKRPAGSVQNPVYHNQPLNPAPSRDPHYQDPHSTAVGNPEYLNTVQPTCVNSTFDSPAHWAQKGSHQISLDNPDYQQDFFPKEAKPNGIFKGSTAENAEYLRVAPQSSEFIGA

| SMILES | GI50 |
| --- | --- |
| C=CC(=O)Nc1cc(Nc2ncc(C(=O)OC(C)C)c(N3CC(C)(C)c4nc(C(F)(F)F)ccc43)n2)c(OC)cc1N(C)CCN(C)C [Example 17, isopropyl 2-((5-acrylamido-4-((2-(dimethylami-no)ethyl)(methyl)amino)-2-methoxy-phenyl)amino)-4-(3,3-dimethyl-5-(trifluoromethyl)-2,3-dibydro-1H-pyrrolo[3,2-b]pyridin-1-yl)pyrimidine-5-carboxylate] | 135 nM |
| C=CC(=O)Nc1cc(Nc2ncc(C(=O)OC(C)C)c(N3CC(C)(C)c4nc(C#CC)ccc43)n2)c(OC)cc1N1CCN(C)C(C)C1 (stereo not shown) [Example 95, isopropyl 2-((5-acrylamido-4-(3,4-dimethyl-piperazin-1-yl)-2-methoxy-phenyl)amino)-4-(3,3-dimethyl-5-(prop-1-yn-1-yl)-2,3-dihydro-1H-pyrrolo[3,2-b]pyridin-1-yl)pyrimidine-5-carboxylate] | 254 nM |
| C=CC(=O)Nc1cc(Nc2ncc(C(=O)OC(C)C)c(N3CC(C)(C)c4nc(C)ccc43)n2)c(OC)cc1N1CC[C@H](N(C)C)C1 [Example 13, isopropyl (S)-2-((5-acrylamido-4-(3-(dimethyl-amino)pyrrolidin-1-yl)-2-methoxy-phenyl)amino)-4-(3,3,5-trimethyl-2,3-dihydro-1H-pyrrolo[3,2-b]pyridin-1-yl)pyrimidine-5-carboxylate] | 78.3 nM |
| C=CC(=O)Nc1cc(Nc2ncc(C(=O)OC(C)C)c(N3CC(C)(C)c4nc(C)ccc43)n2)c(OC2CC2)cc1N(C)CCN(C)C [Example 32, isopropyl 2-((5-acrylamido-2-cyclopropoxy-4-((2-(dimethylamino)ethyl)(methyl)ami-no)phenyl)amino)-4-(3,3,5-trimethyl-2,3-dihydro-1H-pyrrolo[3,2-b]pyridin-1-yl)pyrimidine-5-carboxylate] | 44.4 nM |
| C=CC(=O)Nc1cc(Nc2ncc(C(=O)OC(C)C)c(N3CC(C)(C)c4nc(Br)ccc43)n2)c(OC)cc1N(C)CCN(CC)CC [Example 90, isopropyl 2-((5-acrylamido-4-((2-(diethyl-amino)ethyl)(methyl)amino)-2-methoxyphenyl)amino)-4-(5-bromo-3,3-dimethyl-2,3-dihydro-1H-pyrrolo[3,2-b]pyridin-1-yl)pyrimidine-5-carboxylate] | 116 nM |
| C=CC(=O)Nc1cc(Nc2ncc(C(=O)OC(C)C)c(N3CC(C)(C)c4nc(C(C)C)ccc43)n2)c(OC)cc1N(C)CCN(C)C [Example 16, isopropyl 2-((5-acrylamido-4-((2-(dimethylami-no)ethyl)(methyl)amino)-2-methoxy-phenyl)amino)-4-(5-isopropyl-3,3-dimethyl-2,3-dihydro-1H-pyrrolo[3,2-b]pyridin-1-yl)pyrimidine-5-carboxylate] | 309 nM |
| C=CC(=O)Nc1cc(Nc2ncc(C(=O)OC(C)C)c(N3CC(C)(C)c4nc(C#CC)ccc43)n2)c(OC)cc1N1CCN(C)CC1 [Example 70, isopropyl 2-((5-acrylamido-2-methoxy-4-(4-methylpiperazin-1-yl)phenyl)amino)-4-(3,3-dimethyl-5-(prop-1-yn-1-yl)-2,3-dihydro-1H-pyrrolo[3,2-b]pyridin-1-yl)pyrimidine-5-carboxylate] | 501 nM |
| C=CC(=O)Nc1cc(Nc2ncc(C(=O)OC(C)C)c(N3CC(C)(C)c4nc(C#CC5CC5)ccc43)n2)c(OC)cc1N(C)CCN(C)C [Example 18, isopropyl 2-((5-acrylamido-4-((2-(dimethylami-no)ethyl)(methyl)amino)-2-methoxy-phenyl)amino)-4-(5-(cyclo-propylethynyl)-3,3-dimethyl-2,3-dihydro-1H-pyrrolo[3,2-b]pyridin-1-yl)pyrimidine-5-carboxylate] | 50.8 nM |
| C=CC(=O)Nc1cc(Nc2ncc(C(=O)OC(C)C)c(N3CC(C)(C)c4nc(C#CC(C)C)ccc43)n2)c(OC)cc1N(C)CCN(C)C [Example 19, isopropyl 2-((5-acrylamido-4-((2-(dimethylami-no)ethyl)(methyl)amino)-2-methoxy-phenyl)amino)-4-(3,3-dimethyl-5-(3-methylbut-1-yn-1-yl)-2,3-dihydro-1H-pyrrolo[3,2-b]pyridin-1-yl)pyrimidine-5-carboxylate] | 119 nM |
| C=CC(=O)Nc1cc(Nc2ncc(C(=O)OC(C)C)c(N3CC(C)(C)c4nc5c(cc43)CCC5)n2)c(OC)cc1N(C)CCN(C)C [Example 80, isopropyl 2-((5-acrylamido-4-((2-(dimethylami-no)ethyl)(methyl)amino)-2-methoxy-phenyl)amino)-4-(3,3-dimethyl-3,5,6,7-tetrahydrocyclopenta[b]pyrrolo[2,3-e]pyridin-1(2H)-yl)pyrimidine-5-carboxylate] | 44.9 nM |
| C=CC(=O)Nc1cc(Nc2ncc(C(=O)OC(C)C)c(N3CC(C)(C)c4nc(C)ccc43)n2)c(OC)cc1N1CCN(CC)CC1 [Example 34, isopropyl 2-((5-acrylamido-4-(4-ethylpiperazin-1-yl)-2-methoxyphenyl)amino)-4-(3,3,5-trimethyl-2,3-dihydro-1H-pyrrolo[3,2-b]pyridin-1-yl)pyrimidine-5-carboxylate] | 443 nM |
| C=CC(=O)Nc1cc(Nc2ncc(C(=O)OC(C)C)c(N3CC(C)(C)c4nc(C)ccc43)n2)c(OC)nc1N1CCC[C@H]1CN(C)C [Example 43, isopropyl (S)-2-((5-acrylamido-6-(2-((dimethyl-amino)methyl)pyrrolidin-1-yl)-2-meth-oxypyridin-3-yl)amino)-4-(3,3,5-tri-methyl-2,3-dihydro-1H-pyrrolo[3,2-b]pyridin-1-yl)pyrimidine-5-carboxylate] | 453 nM |
| C=CC(=O)Nc1cc(Nc2ncc(C(=O)OC(C)C)c(N3CC(C)(C)c4nc(C)ccc43)n2)c(OC)cc1N(CC)CCN(C)C [Example 45, isopropyl 2-((5-acrylamido-4-((2-(dimethylami-no)ethyl)(ethyl)amino)-2-methoxy-phenyl)amino)-4-(3,3,5-trimethyl-2,3-dihydro-1H-pyrrolo[3,2-b]pyridin-1-yl)pyrimidine-5-carboxylate] | 76.2 nM |
| C=CC(=O)Nc1cc(Nc2ncc(C(=O)OC(C)C)c(N3CC(C)(C)c4nc(C#CC)ccc43)n2)c(OC)cc1N1CCN(C2CC2)CC1 [Example 75, isopropyl 2-((5-acrylamido-4-(4-cyclopropyl-piperazin-1-yl)-2-methoxyphenyl)ami-no)-4-(3,3-dimethyl-5-(prop-1-yn-1-yl)-2,3-dihydro-1H-pyrrolo[3,2-b]pyridin-1-yl)pyrimidine-5-carboxylate] | 2850 nM |
| C=CC(=O)Nc1cc(Nc2ncc(C(=O)OC(C)C)c(N3CC(C)(C)c4nc(C)ccc43)n2)c(OC)cc1N1CCN(C)CC1 [Example 33, isopropyl 2-((5-acrylamido-2-methoxy-4-(4-methylpiperazin-1-yl)phenyl)amino)-4-(3,3,5-trimethyl-2,3-dihydro-1H-pyrrolo[3,2-b]pyridin-1-yl)pyrimidine-5-carboxylate] | 503 nM |
| C=CC(=O)Nc1cc(Nc2ncc(C(=O)OC(C)C)c(N3CC4(CC4)c4nc(C)ccc43)n2)c(OC)cc1N1CCC[C@H]1CN(C)C [Example 51, isopropyl (S)-2-((5-acrylamido-4-(2-((dimethyl-amino)methyl)pyrrolidin-1-yl)-2-meth-oxyphenyl)amino)-4-(5′-methyl-spiro(cyclopropane-1,3′-pyrrolo[3,2-b]pyridin)-1′(2′H)-yl)pyrimidine-5-carboxylate] | 199 nM |
